Where no end group is shown, it is not given here.
Tested on: HeLa-654 cells
Test: HeLa-654 eGFP assay (flow cytometry: mean fluorescence, gated cell count, F×C)
Type: cell-based, human
Method: With the 36 constructs synthesized, the ability to modulate PMO activity using the modified HeLa cell assay was tested. The HeLa-654 cells were stably transfected to express a nonfluorescent eGFP protein. The eGFP gene is interrupted by a mutant intron from the human β-globin gene (IVS2-654). The insertion alters pre-mRNA splicing to cause retention of a fragment in the mature mRNA that results in a nonfluorescent protein. PMO IVS2-654 base-pairs with the β-globin insertion, modifies mRNA splicing, and thereby leads to expression of fluorescent eGFP.
For treatment, the crude reaction mixture was diluted to 5 μM in media. The concentration of the modular construct was calculated based on the original concentration of the module 1-2 conjugate mixed in the reaction. Using media containing 10% fetal bovine serum (FBS), the cells were treated with each construct for 22 hours, after which the cellular fluorescence was measured by flow cytometry.
The different modules led to several noticeable trends in the level of cellular fluorescence (FIG. 4). When module 2 was DPV6, the overall construct consistently led to high fluorescence, regardless of which peptides were placed in module 3 and 4. However, when either pVEC or TP10 was placed in module 2, minor cellular fluorescence was observed. […]

| Substance | activity relative to PMO by itself (single peptide conjugated to PMO on its own) | cell viability, in words (low micromolar concentrations of copper in cell culture) |
| --- | --- | --- |
| W/R: W/R peptide (RRWWRRWRR) conjugated to PMO on its own (also: conjugated to PMO (position not given here)) | around 3 × | – |
| copper | – | did not affect cell viability |

Source: patent US12168059B2, “Trimeric peptides for antisense delivery” (Sarepta Therapeutics, Inc., priority 2018, dated 2024)
